Here are results for two compounds from ChEMBL document CHEMBL3774317, “Design and synthesis of novel tamoxifen analogues that avoid CYP2D6 metabolism” (Eur J Med Chem, 2016).

Series [1] in a line: Cytotoxicity against human OVCAR3 cells assessed as cell growth at 10^-4 M after 48 hrs by SRB assay. The note with it: OVCAR-3, 48 h, read-out: Activity. Format: functional. Background: In SRB staining, fixed cells bind dye roughly in proportion to their protein.
The nature of series [2]: Cytotoxicity against human HCC2998 cells assessed as cell growth at 10^-7 M after 48 hrs by SRB assay. The note with it: HCC 2998, 48 h, read-out: Activity. Format: functional.
Series [3] in a line: Cytotoxicity against human UACC62 cells assessed as cell growth at 10^-5 M after 48 hrs by SRB assay. The note with it: UACC-62, 48 h, read-out: Activity. The series is classed as functional.
Series [4] is described as follows: Cytotoxicity against human BT549 cells assessed as cell growth at 10^-8 M after 48 hrs by SRB assay. The settings on record: BT-549, 48 h, read-out: Activity. Format: functional.
The nature of series [5]: Cytotoxicity against human SF268 cells assessed as cell growth at 10^-5 M after 48 hrs by SRB assay. Format: functional. The settings on record: SF-268, 48 h, read-out: Activity.
Series [6] in a line: Cytotoxicity against human SF539 cells assessed as cell growth at 10^-5 M after 48 hrs by SRB assay. Format: functional. The note with it: SF-539, 48 h, read-out: Activity.
The next series has as its system A498. Kind of series: Cytotoxicity against human A498 cells assessed as cell growth at 10^-4 M after 48 hrs by SRB assay. The series is classed as functional. The settings on record: A498, 48 h, read-out: Activity.
The nature of series [7]: Cytotoxicity against human SF539 cells assessed as cell growth at 10^-6 M after 48 hrs by SRB assay. The settings on record: SF-539, 48 h, read-out: Activity. Format: functional.
The nature of series [8]: Cytotoxicity against human HOP92 cells assessed as cell growth at 10^-7 M after 48 hrs by SRB assay. The settings on record: HOP-92, 48 h, read-out: Activity. Format: functional.
The subject of another series is MDA-MB-231. Kind of series: Cytotoxicity against human MDA-MB-231 cells assessed as cell growth at 10^-4 M after 48 hrs by SRB assay. The settings on record: MDA-MB-231, 48 h, read-out: Activity. The series is classed as functional.
Series [9] has as its system NCI-H522. In words: Cytotoxicity against human NCI-H522 cells assessed as cell growth at 10^-6 M after 48 hrs by SRB assay. The series is classed as functional. The settings on record: NCI-H522, 48 h, read-out: Activity.
A short description of series [10]: Cytotoxicity against human MOLT4 cells assessed as cell growth at 10^-6 M after 48 hrs by SRB assay. Format: functional. The settings on record: MOLT-4, 48 h, read-out: Activity.
A further series deals with Malme-3M. Kind of series: Cytotoxicity against human MALME-3M cells assessed as cell growth at 10^-4 M after 48 hrs by SRB assay. The series is classed as functional. The settings on record: read-out: Activity.
In series [11] the test system is NCI-H460. In words: Cytotoxicity against human NCI-H460 cells assessed as cell growth at 10^-4 M after 48 hrs by SRB assay. The series is classed as functional. The settings on record: NCI-H460, 48 h, read-out: Activity.
The test system of the next series is MCF7. Kind of series: Cytotoxicity against human MCF7 cells assessed as cell growth at 10^-6 M after 48 hrs by SRB assay. The note with it: MCF7, 48 h, read-out: Activity. The series is classed as functional.
The subject of series [12] is SK-MEL-28. In words: Cytotoxicity against human SK-MEL-28 cells assessed as cell growth at 10^-5 M after 48 hrs by SRB assay. Format: functional. The settings on record: SK-MEL-28, 48 h, read-out: Activity.
Series [13] is described as follows: Cytotoxicity against human OVCAR4 cells assessed as cell growth at […] after 48 hrs by SRB assay. Format: functional. The settings on record: OVCAR-4, 48 h, read-out: Activity.
Series [14] in a line: Cytotoxicity against human HCT15 cells assessed as cell growth at 10^-8 M after 48 hrs by SRB assay. Format: functional. The note with it: HCT-15, 48 h, read-out: Activity.
Series [15] is described as follows: Cytotoxicity against human Hs 578T cells assessed as cell growth at 10^-6 M after 48 hrs by SRB assay. Format: functional. The note with it: read-out: Activity.
Another series relates to K562. Kind of series: Cytotoxicity against human K562 cells assessed as cell growth at 10^-5 M after 48 hrs by SRB assay. The note with it: K562, 48 h, read-out: Activity. The series is classed as functional.
In the next series the test system is T47D. Kind of series: Cytotoxicity against human T47D cells assessed as cell growth at 10^-8 M after 48 hrs by SRB assay. Format: functional. The note with it: read-out: Activity.
Series [16] in a line: Cytotoxicity against human UO31 cells assessed as cell growth at 10^-8 M after 48 hrs by SRB assay. The note with it: UO-31, 48 h, read-out: Activity. The series is classed as functional.
A short description of series [17]: Cytotoxicity against human HOP92 cells assessed as cell growth at 50 uM after 48 hrs by SRB assay. The series is classed as functional. The settings on record: HOP-92, 48 h, read-out: Activity.
Series [18] has as its system CCRF-CEM. In words: Cytotoxicity against human CCRF-CEM cells assessed as cell growth at 50 nM after 48 hrs by SRB assay. The series is classed as functional. The settings on record: read-out: Activity.
A short description of series [19]: Metabolic stability in human liver microsomes assessed as remaining parent compound level at 10 uM measured immediately after compound addition in absence of NAPDH by LC/MS analysis. Format: ADME. The note with it: read-out: Drug metabolism.
For a further series, the system named is 786-0. Kind of series: Cytotoxicity against human 786-0 cells assessed as cell growth at 5 nM after 48 hrs by SRB assay. Format: functional. The settings on record: 786-0, 48 h, read-out: Activity.
In series [20] the test system is SK-MEL-28. Kind of series: Cytotoxicity against human SK-MEL-28 cells assessed as cell growth at 0.5 uM after 48 hrs by SRB assay. Format: functional. The settings on record: SK-MEL-28, 48 h, read-out: Activity.
Series [21] deals with CCRF-CEM. Kind of series: Cytotoxicity against human CCRF-CEM cells assessed as cell growth at 50 uM after 48 hrs by SRB assay. Format: functional. The note with it: read-out: Activity.
A short description of series [22]: Cytotoxicity against human Hs 578T cells assessed as cell growth at 5 nM after 48 hrs by SRB assay. Format: functional. The settings on record: read-out: Activity.
Series [23] in a line: Cytotoxicity against human SNB19 cells assessed as cell growth at 5 nM after 48 hrs by SRB assay. Format: functional. The settings on record: SNB-19, 48 h, read-out: Activity.
The nature of series [24]: Cytotoxicity against human NCI-ADR-RES cells assessed as cell growth at 0.5 uM after 48 hrs by SRB assay. The note with it: read-out: Activity. Format: functional.
Series [25] is described as follows: Cytotoxicity against human LOXIMVI cells assessed as cell growth at 5 nM after 48 hrs by SRB assay. The note with it: LOX IMVI, read-out: Activity. Format: functional.
Another series has as its system KM12. In words: Cytotoxicity against human KM12 cells assessed as cell growth at 5 uM after 48 hrs by SRB assay. The note with it: KM12, 48 h, read-out: Activity. The series is classed as functional.
Series [26] deals with NCI-H460. In words: Cytotoxicity against human NCI-H460 cells assessed as cell growth at 0.5 uM after 48 hrs by SRB assay. Format: functional. The settings on record: NCI-H460, 48 h, read-out: Activity.
In the next series the test system is HT-29. In words: Cytotoxicity against human HT-29 cells assessed as cell growth at 5 nM after 48 hrs by SRB assay. The settings on record: HT-29, 48 h, read-out: Activity. Format: functional.
A short description of series [27]: Cytotoxicity against human LOXIMVI cells assessed as cell growth at 0.5 uM after 48 hrs by SRB assay. The series is classed as functional. The note with it: LOX IMVI, read-out: Activity.
The nature of series [28]: Cytotoxicity against human UO31 cells assessed as cell growth at 50 uM after 48 hrs by SRB assay. Format: functional. The note with it: UO-31, 48 h, read-out: Activity.
A short description of series [29]: Cytotoxicity against human OVCAR8 cells assessed as cell growth at 5 uM after 48 hrs by SRB assay. The series is classed as functional. The note with it: OVCAR-8, 48 h, read-out: Activity.
In a further series the test system is NCI-H23. Kind of series: Cytotoxicity against human NCI-H23 cells assessed as cell growth at 0.5 uM after 48 hrs by SRB assay. Format: functional. The settings on record: NCI-H23, 48 h, read-out: Activity.
Series [30] relates to NCI-H522. Kind of series: Cytotoxicity against human NCI-H522 cells assessed as cell growth at 5 uM after 48 hrs by SRB assay. The series is classed as functional. The settings on record: NCI-H522, 48 h, read-out: Activity.
Series [31] in a line: Cytotoxicity against human OVCAR8 cells assessed as cell growth at 0.5 uM after 48 hrs by SRB assay. The series is classed as functional. The note with it: OVCAR-8, 48 h, read-out: Activity.

For `C/C(=C(/c1ccc(O)cc1)c1ccc(OCCN2CCCC2)cc1)c1ccccc1`, the growth at 100 µM in series [1] is -100%; in the series on A498, -82%; in the series on MDA-MB-231, -71%; in the series on Malme-3M, -91%; with NCI-H460 [11] it was -92%. The growth at 0.1 µM was 92% in series [2], 102% in series [8] and 95% in series [13]. Besides, the growth at 10 µM is -51% in series [3]; 37% in series [5]; -67% in series [6]; -74% in the series on SK-MEL-28 [12]; -38% with K562. Moreover, the growth at 0.01 µM came out at 96% in series [4], 92% in series [14], 62% in the series on T47D and 93% in [16]. The growth at 1 µM in series [7] was determined as 91%; with NCI-H522 [9] it was 92%; in series [10], 92%; in the series with MCF7, 36%; in series [15], 95%.
With `CCCCCCCCCC(=O)Oc1ccc(/C(=C(/C)c2ccccc2)c2ccc(OCCN3CCCC3)cc2)cc1`, the growth at 50 µM in [17] is -75%; in the series on CCRF-CEM [21], -47%; in series [28] it was -85%. The growth at 0.05 µM in the series with CCRF-CEM [18] was 100%. For the same compound, the remaining at 0 h, 10 µM in series [19] was 82%. In addition, the growth at 0.005 µM in the series with 786-0 came to 102%; in [22] it was 92%; in series [23] it was 98%; in series [25] it was 97%; in the series on HT-29, 101%. Also, the growth at 0.5 µM in the series on SK-MEL-28 [20] was determined as 19%; in series [24] it was 73%; with NCI-H460 [26] it was 78%; in [27], 62%; with NCI-H23 it was 71%; in series [31] it was 91%. Besides, the growth at 5 µM in the series on KM12 came to 94%; in [29] it was 95%; in the series on NCI-H522 [30], 96%.
